In patent US7138361B2, “Herbicidal heterocycles” (E. I. du Pont de Nemours and Company, priority 2000, dated 2006):

What was measured:
Type in all cases: in vivo
[1] = tested on: cocklebur (Xanthium strumarium); test: Test B preemergence
Summary of the method: (§1)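 Ratings on a 0 to 100 visual scale (100 complete control) compare treated plants with controls 13 to 15 days after application. Treatments were pre- or postemergence sprays of compound in non-phytotoxic solvent with surfactant.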

[2] = tested on: pigweed (Amaranthus retroflexus); test: Test B preemergence
Summary of the method: as §1

rice (Oryza saliva) = test: Test B preemergence
Summary of the method: as §1

[3] = tested on: crabgrass (Digitaria sanguinalis); test: Test B preemergence
Summary of the method: as §1

[4] = tested on: giant foxtail (Setaria faberii); test: Test B preemergence
Summary of the method: as §1

corn (Zea mays) [5] = test: Test B preemergence
Summary of the method: as §1

[6] = tested on: Surinam grass (Brachiaria decumbens); test: Test B preemergence
Summary of the method: as §1

[7] = tested on: lambsquarters (Chenopodium album); test: Test B preemergence
Summary of the method: as §1

[8] = tested on: morning glory (Ipomoea hederacea); test: Test B preemergence
Summary of the method: as §1

Nightshade = test: Test C preemergence; details: Rate 500 g/ha, visual evaluation after 12 to 14 days
kochia (Kochia scoparia) = test: Test C postemergence
Summary of the method: (§2)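 Response scores (0 no effect to 100 complete control) came from visual comparison with untreated controls 12 to 14 days after treatment. Preemergence application was made to seeded soil; postemergence, to plants at the 1- to 4-leaf stage.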

[9] = tested on: cocklebur (Xanthium strumarium); test: Test C postemergence
Summary of the method: as §2

[10] = tested on: goosegrass (Eleusine indica); test: Test C postemergence
Summary of the method: as §2

[11] = tested on: pigweed (Amaranthus retroflexus); test: Test C postemergence
Summary of the method: as §2

[12] = tested on: morningglory (Ipomoea hederacea); test: Test C postemergence
Summary of the method: as §2

[13] = tested on: crabgrass (Digitaria sanguinalis); test: Test C postemergence
Summary of the method: as §2

soybean (Glycine max) = test: Test C postemergence
Summary of the method: as §2

[14] = tested on: giant foxtail (Setaria faberii); test: Test C postemergence
Summary of the method: as §2

corn (Zea mays) [15] = test: Test C postemergence
Summary of the method: as §2

[16] = tested on: velvetleaf (Abutilon theophrasti); test: Test C postemergence
Summary of the method: as §2

[17] = tested on: bermudagrass (Cynodon dactylon); test: Test C postemergence
Summary of the method: as §2

[18] = tested on: Surinam grass (Brachiaria decumbens); test: Test C postemergence
Summary of the method: as §2

[19] = tested on: yellow nutsedge (Cyperus esculentus); test: Test C postemergence
Summary of the method: as §2

[20] = Preemergence, Rate 500 g/ha, scale 0 to 100, 0 no effect, 100 complete control
[21] = preemergence, Rate 125 g/ha, scale of 0 to 100 where 0 is no effect and 100 is complete control, 13 to 15 days
[22] = Rate 250 g/ha, scale 0 to 100 (0 no effect, 100 complete control)
[23] = Rate 500 g/ha, scale 0 to 100 (0 no effect, 100 complete control)
[24] = Rate 125 g/ha, scale 0 to 100, 0 no effect, 100 complete control

CCC(CC)c1ccn(C2OCN(c3cccc(OC(F)F)c3)C2=O)n1 (stereo not shown) [Compound 131]
100: Plant response rating, Pigweed [2, 20] | Plant response rating, Pigweed [2, 21] | Plant response rating, Rice (rice (Oryza saliva); [20]) | Plant response rating, Crabgrass [3, 20] | Plant response rating, Crabgrass [3, 21] | Plant response rating, Foxtail, Giant [4, 20] | Plant response rating, Foxtail, Giant [4, 21] | Plant response rating, Surinam grass [6, 20] | Plant response rating, Surinam grass [6, 21] | Plant response rating, Lambsquarters [7, 20] | Plant response rating, Lambsquarters [7, 21] | Plant response rating (0 to 100), Nightshade (Nightshade) | Plant response rating, Pigweed [11, 23] | Plant response rating, Morningglory [12, 23]
90: Plant response rating, Morningglory [8, 20] | Plant response rating, Kochia (kochia (Kochia scoparia); [23]) | Plant response rating, Pigweed [11, 22] | Plant response rating, Crabgrass [13, 23] | Plant response rating, Bermudagrass [17, 22] | Plant response rating, Bermudagrass [17, 23]
80: Plant response rating, Kochia (kochia (Kochia scoparia); [22]) | Plant response rating, Goosegrass [10, 23] | Plant response rating, Morningglory [12, 22] | Plant response rating, Crabgrass [13, 22] | Plant response rating, Foxtail, Giant [14, 23]
70: Plant response rating, Rice (rice (Oryza saliva); [21]) | Plant response rating, Goosegrass [10, 22]
60: Plant response rating, Kochia (kochia (Kochia scoparia); Rate 62 g/ha, scale 0 to 100) | Plant response rating, Bermudagrass [17, 24]
40: Plant response rating, Corn (corn (Zea mays) [5]; [21]) | Plant response rating, Goosegrass ([10]; Rate 62 g/ha, scale 0 to 100) | Plant response rating, Surinam grass [18, 22] | Plant response rating, Surinam grass [18, 23]
50: Plant response rating, Corn (corn (Zea mays) [5]; [20]) | Plant response rating, Soybean (soybean (Glycine max); [23]) | Plant response rating, Foxtail, Giant [14, 22]
20: Plant response rating, Pigweed ([11]; Rate 62 g/ha, scale 0 to 100) | Plant response rating, Soybean (soybean (Glycine max); Rate 62 g/ha, scale 0 to 100) | Plant response rating, Foxtail, Giant ([14]; Rate 62 g/ha, scale 0 to 100) | Plant response rating, Corn (corn (Zea mays) [15]; [22]) | Plant response rating, Velvetleaf ([16]; Rate 62 g/ha, scale 0 to 100) | Plant response rating, Velvetleaf [16, 22] | Plant response rating, Velvetleaf ([16]; scale 0 to 100) | Plant response rating, Bermudagrass ([17]; Rate 62 g/ha, scale 0 to 100)
0: Plant response rating, Cocklebur [1, 21] | Plant response rating, Morningglory [8, 21] | Plant response rating, Cocklebur ([9]; Rate 62 g/ha, scale 0 to 100) | Plant response rating, Corn (corn (Zea mays) [15]; Rate 62 g/ha, scale 0 to 100) | Plant response rating, Surinam grass ([18]; Rate 62 g/ha, scale 0 to 100) | Plant response rating, Nutsedge ([19]; Rate 62 g/ha, scale 0 to 100) | Plant response rating, Nutsedge [19, 22] | Plant response rating, Nutsedge [19, 23]
30: Plant response rating, Cocklebur [1, 20] | Plant response rating, Cocklebur [9, 22] | Plant response rating, Cocklebur [9, 23] | Plant response rating, Soybean (soybean (Glycine max); [22]) | Plant response rating, Corn (corn (Zea mays) [15]; [23]) | Plant response rating, Velvetleaf [16, 23]
10: Plant response rating, Corn (corn (Zea mays) [15]; scale 0 to 100)

COc1cc(N2CCC(n3ccc(C(C)(C)C)n3)C2=O)ccc1Cl (stereo not shown) [Compound 117]
10: Plant response rating, Goosegrass ([10]; Rate 62 g/ha, scale 0 to 100) | Plant response rating, Crabgrass [13, 22] | Plant response rating, Crabgrass [13, 23] | Plant response rating, Corn (corn (Zea mays) [15]; [23])
30: Plant response rating, Corn (corn (Zea mays) [5]; [20]) | Plant response rating, Foxtail, Giant [14, 22]
90: Plant response rating, Kochia (kochia (Kochia scoparia); [23]) | Plant response rating, Pigweed [11, 22] | Plant response rating, Soybean (soybean (Glycine max); [23])
0: Plant response rating, Rice (rice (Oryza saliva); [21]) | Plant response rating, Cocklebur ([9]; Rate 62 g/ha, scale 0 to 100) | Plant response rating, Crabgrass ([13]; Rate 62 g/ha, scale 0 to 100) | Plant response rating, Foxtail, Giant ([14]; Rate 62 g/ha, scale 0 to 100) | Plant response rating, Corn (corn (Zea mays) [15]; Rate 62 g/ha, scale 0 to 100) | Plant response rating, Corn (corn (Zea mays) [15]; [22]) | Plant response rating, Corn (corn (Zea mays) [15]; scale 0 to 100) | Plant response rating, Bermudagrass ([17]; Rate 62 g/ha, scale 0 to 100) | Plant response rating, Surinam grass ([18]; Rate 62 g/ha, scale 0 to 100) | Plant response rating, Surinam grass [18, 24] | Plant response rating, Surinam grass [18, 22] | Plant response rating, Nutsedge ([19]; Rate 62 g/ha, scale 0 to 100) | Plant response rating, Nutsedge [19, 22] | Plant response rating, Nutsedge [19, 23]
100: Plant response rating, Cocklebur [1, 20] | Plant response rating, Pigweed [2, 20] | Plant response rating, Pigweed [2, 21] | Plant response rating, Crabgrass [3, 20] | Plant response rating, Crabgrass [3, 21] | Plant response rating, Foxtail, Giant [4, 20] | Plant response rating, Foxtail, Giant [4, 21] | Plant response rating, Surinam grass [6, 20] | Plant response rating, Surinam grass [6, 21] | Plant response rating, Lambsquarters [7, 20] | Plant response rating, Lambsquarters [7, 21] | Plant response rating, Morningglory [8, 20] | Plant response rating (0 to 100), Nightshade (Nightshade) | Plant response rating, Cocklebur [9, 23] | Plant response rating, Goosegrass [10, 23] | Plant response rating, Pigweed [11, 23] | Plant response rating, Morningglory ([12]; Rate 62 g/ha, scale 0 to 100) | Plant response rating, Morningglory [12, 22] | Plant response rating, Morningglory [12, 23]
15: Plant response rating, Surinam grass [18, 23]
70: Plant response rating, Cocklebur [1, 21] | Plant response rating, Rice (rice (Oryza saliva); [20]) | Plant response rating, Goosegrass [10, 22]
85: Plant response rating, Kochia (kochia (Kochia scoparia); [22]) | Plant response rating, Cocklebur [9, 22] | Plant response rating, Soybean (soybean (Glycine max); [22])
20: Plant response rating, Corn (corn (Zea mays) [5]; [21]) | Plant response rating, Velvetleaf ([16]; Rate 62 g/ha, scale 0 to 100)
60: Plant response rating, Pigweed ([11]; Rate 62 g/ha, scale 0 to 100) | Plant response rating, Foxtail, Giant [14, 23] | Plant response rating, Velvetleaf [16, 23]
50: Plant response rating, Soybean (soybean (Glycine max); Rate 62 g/ha, scale 0 to 100) | Plant response rating, Bermudagrass [17, 24] | Plant response rating, Bermudagrass [17, 22]
80: Plant response rating, Morningglory [8, 21] | Plant response rating, Kochia (kochia (Kochia scoparia); Rate 62 g/ha, scale 0 to 100)
95: Plant response rating, Bermudagrass [17, 23]
35: Plant response rating, Velvetleaf [16, 22] | Plant response rating, Velvetleaf ([16]; scale 0 to 100)
